Data as given in ChEMBL document CHEMBL2074154, “Modulation of the function of P-glycoprotein by estramustine” (J Natl Cancer Inst, 1994).

Target: ATP-dependent translocase ABCB1 (Homo sapiens, UniProt P08183)
Assay: TP_TRANSPORTER: increase in Vinblastine intracellular accumulation (Vinblastine: 1 uM, Estramustine: 50 uM) in SKVLB 1 cells
Assay type: functional, cell-based
Conditions: skvlb 1, 50 µM

Chain of ATP-dependent translocase ABCB1 (P08183 whole entry): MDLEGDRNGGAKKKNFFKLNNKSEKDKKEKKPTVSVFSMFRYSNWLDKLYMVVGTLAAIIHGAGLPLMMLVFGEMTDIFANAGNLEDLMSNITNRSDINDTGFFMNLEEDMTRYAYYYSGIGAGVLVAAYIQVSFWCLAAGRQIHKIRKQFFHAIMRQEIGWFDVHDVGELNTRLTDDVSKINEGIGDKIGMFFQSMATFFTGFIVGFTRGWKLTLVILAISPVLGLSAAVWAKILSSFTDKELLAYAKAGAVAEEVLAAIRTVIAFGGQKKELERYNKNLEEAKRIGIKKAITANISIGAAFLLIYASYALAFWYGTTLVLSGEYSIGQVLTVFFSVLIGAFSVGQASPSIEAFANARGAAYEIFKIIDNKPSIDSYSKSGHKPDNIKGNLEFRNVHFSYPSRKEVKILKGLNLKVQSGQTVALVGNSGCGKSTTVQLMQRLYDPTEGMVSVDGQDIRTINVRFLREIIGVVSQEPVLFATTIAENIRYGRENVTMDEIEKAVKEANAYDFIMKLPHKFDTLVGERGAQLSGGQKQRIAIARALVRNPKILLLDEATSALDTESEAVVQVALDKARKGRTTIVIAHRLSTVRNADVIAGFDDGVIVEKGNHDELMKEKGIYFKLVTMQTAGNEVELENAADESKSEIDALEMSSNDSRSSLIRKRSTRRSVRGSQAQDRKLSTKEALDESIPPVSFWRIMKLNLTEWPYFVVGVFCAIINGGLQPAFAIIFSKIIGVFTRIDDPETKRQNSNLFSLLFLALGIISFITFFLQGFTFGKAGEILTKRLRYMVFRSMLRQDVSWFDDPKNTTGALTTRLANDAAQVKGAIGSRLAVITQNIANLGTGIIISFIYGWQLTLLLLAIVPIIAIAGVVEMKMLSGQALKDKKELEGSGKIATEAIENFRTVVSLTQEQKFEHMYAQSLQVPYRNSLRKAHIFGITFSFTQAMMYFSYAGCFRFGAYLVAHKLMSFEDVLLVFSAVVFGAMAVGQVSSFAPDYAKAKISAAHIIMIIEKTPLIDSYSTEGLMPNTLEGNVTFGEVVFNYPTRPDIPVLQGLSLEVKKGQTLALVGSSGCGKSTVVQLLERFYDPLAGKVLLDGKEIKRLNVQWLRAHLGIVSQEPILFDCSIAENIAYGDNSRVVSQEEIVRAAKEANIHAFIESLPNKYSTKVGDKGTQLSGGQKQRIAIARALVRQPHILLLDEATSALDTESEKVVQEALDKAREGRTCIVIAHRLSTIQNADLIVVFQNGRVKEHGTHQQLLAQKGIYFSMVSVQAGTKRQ

Structure (SMILES): C[C@]12CC[C@@H]3c4ccc(OC(=O)N(CCCl)CCCl)cc4CC[C@H]3[C@@H]1CC[C@@H]2O [ESTRAMUSTINE]
- Activity: inhibitor [+]
